{"source": "paper PMC8171091", "about": "“Tanshinone I, a new EZH2 inhibitor restricts normal and malignant hematopoiesis through upregulation of MMP9 and ABCG2” (Theranostics, 2021)", "key": {"[1]": {"target": "EZH2 (zEZH2) (Danio rerio, UniProt Q08BS4)", "sequence (Q08BS4 whole entry)": "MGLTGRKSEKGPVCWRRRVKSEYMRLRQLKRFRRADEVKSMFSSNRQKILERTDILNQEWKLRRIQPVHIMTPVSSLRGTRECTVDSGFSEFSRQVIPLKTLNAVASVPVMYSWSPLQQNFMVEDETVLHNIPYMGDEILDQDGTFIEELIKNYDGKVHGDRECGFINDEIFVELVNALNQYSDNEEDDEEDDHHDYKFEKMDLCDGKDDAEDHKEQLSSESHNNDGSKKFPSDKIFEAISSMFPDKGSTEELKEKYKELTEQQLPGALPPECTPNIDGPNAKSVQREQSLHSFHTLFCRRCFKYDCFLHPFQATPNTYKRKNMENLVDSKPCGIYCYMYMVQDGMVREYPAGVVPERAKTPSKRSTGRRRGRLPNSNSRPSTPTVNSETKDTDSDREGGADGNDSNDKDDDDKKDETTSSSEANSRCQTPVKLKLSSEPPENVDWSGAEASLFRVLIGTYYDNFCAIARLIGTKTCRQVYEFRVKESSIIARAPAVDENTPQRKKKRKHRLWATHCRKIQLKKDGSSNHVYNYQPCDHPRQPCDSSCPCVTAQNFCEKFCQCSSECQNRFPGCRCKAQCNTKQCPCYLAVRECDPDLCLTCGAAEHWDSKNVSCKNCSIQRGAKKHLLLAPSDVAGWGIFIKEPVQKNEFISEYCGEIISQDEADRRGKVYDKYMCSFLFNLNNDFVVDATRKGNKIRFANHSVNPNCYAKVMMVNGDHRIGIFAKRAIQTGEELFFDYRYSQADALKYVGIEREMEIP", "assay": "SPR (Biacore T200), EZH2 immobilized on CM5 chip", "type": "binding"}, "[2]": {"target": "T1, EZH2 (wild type PRC2 complex) (Homo sapiens, UniProt Q15910)", "T1 construct": "wild type PRC2 complex (31387, Active Motif); with PRC2 complex (EED, SUZ12)", "T1 sequence (Q15910 whole entry)": "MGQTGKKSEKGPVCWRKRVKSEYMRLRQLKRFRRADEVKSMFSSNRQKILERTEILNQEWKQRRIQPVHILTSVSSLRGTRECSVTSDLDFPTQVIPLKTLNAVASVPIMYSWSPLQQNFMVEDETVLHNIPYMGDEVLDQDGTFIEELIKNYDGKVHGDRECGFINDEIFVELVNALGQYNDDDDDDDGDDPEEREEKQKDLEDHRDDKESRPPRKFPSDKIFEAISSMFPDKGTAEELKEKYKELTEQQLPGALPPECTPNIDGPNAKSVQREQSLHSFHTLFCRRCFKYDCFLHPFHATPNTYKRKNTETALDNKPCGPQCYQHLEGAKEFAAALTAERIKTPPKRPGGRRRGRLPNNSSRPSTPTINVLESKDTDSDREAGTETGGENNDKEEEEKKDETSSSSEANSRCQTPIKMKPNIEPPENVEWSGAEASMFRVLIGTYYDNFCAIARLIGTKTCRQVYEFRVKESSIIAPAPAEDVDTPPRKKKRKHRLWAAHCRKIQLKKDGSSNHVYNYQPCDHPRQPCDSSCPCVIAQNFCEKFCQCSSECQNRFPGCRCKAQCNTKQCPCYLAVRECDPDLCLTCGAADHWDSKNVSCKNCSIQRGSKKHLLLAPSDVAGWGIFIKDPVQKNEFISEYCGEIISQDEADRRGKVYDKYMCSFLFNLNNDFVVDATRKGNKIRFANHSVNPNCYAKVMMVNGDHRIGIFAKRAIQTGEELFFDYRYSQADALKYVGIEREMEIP", "T1 sequence (O75530 2-441 partner)": "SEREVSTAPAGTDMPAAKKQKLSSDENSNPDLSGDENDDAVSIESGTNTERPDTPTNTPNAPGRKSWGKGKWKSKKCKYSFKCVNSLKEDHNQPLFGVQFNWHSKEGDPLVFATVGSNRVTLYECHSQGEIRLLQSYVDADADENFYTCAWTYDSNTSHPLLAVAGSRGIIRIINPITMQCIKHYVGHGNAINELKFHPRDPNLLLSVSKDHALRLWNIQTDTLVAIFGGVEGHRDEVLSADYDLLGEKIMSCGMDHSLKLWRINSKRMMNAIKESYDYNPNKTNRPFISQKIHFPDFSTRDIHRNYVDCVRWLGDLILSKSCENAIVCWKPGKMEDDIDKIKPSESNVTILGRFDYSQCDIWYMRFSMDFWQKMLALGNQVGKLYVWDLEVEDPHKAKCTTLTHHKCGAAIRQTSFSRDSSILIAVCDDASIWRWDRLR", "T1 sequence (Q15022 whole entry partner)": "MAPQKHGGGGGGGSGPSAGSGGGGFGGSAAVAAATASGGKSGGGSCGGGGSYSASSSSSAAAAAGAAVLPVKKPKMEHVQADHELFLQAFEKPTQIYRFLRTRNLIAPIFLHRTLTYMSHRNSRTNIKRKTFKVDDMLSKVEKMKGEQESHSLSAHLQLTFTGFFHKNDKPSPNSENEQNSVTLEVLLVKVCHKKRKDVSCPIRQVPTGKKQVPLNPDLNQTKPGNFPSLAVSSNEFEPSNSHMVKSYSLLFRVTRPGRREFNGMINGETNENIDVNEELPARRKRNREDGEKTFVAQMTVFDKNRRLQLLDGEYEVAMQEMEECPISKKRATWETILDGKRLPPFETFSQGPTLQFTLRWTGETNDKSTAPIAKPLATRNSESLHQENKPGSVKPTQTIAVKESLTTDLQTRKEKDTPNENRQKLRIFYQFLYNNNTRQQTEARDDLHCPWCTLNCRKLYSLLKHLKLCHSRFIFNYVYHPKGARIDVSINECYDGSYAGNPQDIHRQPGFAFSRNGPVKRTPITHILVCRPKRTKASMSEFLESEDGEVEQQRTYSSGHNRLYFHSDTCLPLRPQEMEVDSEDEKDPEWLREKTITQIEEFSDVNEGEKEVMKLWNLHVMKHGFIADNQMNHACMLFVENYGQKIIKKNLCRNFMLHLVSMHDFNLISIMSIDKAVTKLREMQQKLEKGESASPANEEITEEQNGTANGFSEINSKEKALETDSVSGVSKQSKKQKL", "T1 sequence (Q09028 2-425 partner)": "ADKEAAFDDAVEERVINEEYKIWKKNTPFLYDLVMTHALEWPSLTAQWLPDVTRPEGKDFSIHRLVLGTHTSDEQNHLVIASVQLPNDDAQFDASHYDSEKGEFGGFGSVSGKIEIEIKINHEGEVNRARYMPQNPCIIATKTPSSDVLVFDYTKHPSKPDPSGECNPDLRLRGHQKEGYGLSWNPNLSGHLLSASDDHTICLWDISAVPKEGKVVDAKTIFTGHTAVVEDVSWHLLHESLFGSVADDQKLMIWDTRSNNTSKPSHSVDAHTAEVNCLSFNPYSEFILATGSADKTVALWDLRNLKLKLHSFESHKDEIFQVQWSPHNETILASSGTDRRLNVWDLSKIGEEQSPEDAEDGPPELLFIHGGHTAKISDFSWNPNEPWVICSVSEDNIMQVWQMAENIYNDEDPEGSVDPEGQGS", "T1 sequence (Q6ZN18 2-517 partner)": "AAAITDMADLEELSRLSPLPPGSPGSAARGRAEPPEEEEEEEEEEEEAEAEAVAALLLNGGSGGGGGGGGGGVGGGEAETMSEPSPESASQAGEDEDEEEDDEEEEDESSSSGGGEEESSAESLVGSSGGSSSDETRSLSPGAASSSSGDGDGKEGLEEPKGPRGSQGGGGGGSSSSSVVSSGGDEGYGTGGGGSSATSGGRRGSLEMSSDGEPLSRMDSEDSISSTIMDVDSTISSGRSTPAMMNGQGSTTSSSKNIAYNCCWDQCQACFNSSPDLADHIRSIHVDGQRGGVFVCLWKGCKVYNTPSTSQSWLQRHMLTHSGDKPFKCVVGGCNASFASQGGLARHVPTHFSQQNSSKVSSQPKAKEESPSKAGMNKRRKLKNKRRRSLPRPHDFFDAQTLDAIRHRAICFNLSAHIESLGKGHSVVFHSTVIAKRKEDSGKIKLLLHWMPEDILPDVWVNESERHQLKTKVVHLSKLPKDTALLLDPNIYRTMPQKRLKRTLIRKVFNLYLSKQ", "assay": "in vitro methyltransferase assay with recombinant PRC2 and histone H3.[…], western blot readout", "type": "biochemical"}, "[3]": {"target": "EED (hEED) (Homo sapiens, UniProt O75530)", "sequence (O75530 2-441)": "as the sequence (O75530 2-441 partner) above", "assay": "SPR (Biacore T200), EED immobilized on CM5 chip", "type": "binding"}}, "data": [{"smiles": "Cc1coc2c1C(=O)C(=O)c1c-2ccc2c(C)cccc12", "note": "[Tan I, Tanshinone I]", "values": [{"measurement": "Kd", "setting": "[1]", "result": 29.4, "unit": "µM"}, {"measurement": "in vitro methyltransferase assay with recombinant PRC2 and histone H3.3, western", "setting": "[2]", "result": "~ 5 μM"}, {"measurement": "Kd", "setting": "[3]", "result": 94.5, "unit": "µM"}]}]}
